Where two headings read alike, the source gives them in different places.
What was measured:
Format in all cases: in vivo
[1] = test system: apple scab pathogen (Venturia inaequalis); experiment: Apple scab control test (100 ppm spray on apple seedlings); details: 336 h; apple seedlings (Ralls Janet), emulsion sprayed at 100 ppm, inoculated with Venturia inaequalis, 2 weeks
Procedure: Ralls Janet, leaf stage: 3 to 4) cultivated in unglazed pots and allowed to air-dry at room temperature. Subsequently, the seedlings were inoculated with conidiospores of apple scab pathogen (Venturia inaequalis) followed by holding for 2 weeks indoors at 20° C. and high humidity using a 12 hour light/dark cycle. The appearance of lesions on the leaves was compared with untreated seedlings to determine control effects.

[2] = test system: cucumber gray mold pathogen (Botrytis cinerea); experiment: Cucumber gray mold control test; details: 96 h, cucumber seedlings (Sagami Hanjiro), emulsion sprayed at 100 ppm, 4 days
Procedure: Sagami Hanjiro, leaf stage: cotyledon) cultivated in unglazed pots, and allowed to air-dry at room temperature. Subsequently, the seedlings were drip-inoculated with conidiospore suspensions of cucumber gray mold pathogen (Botrytis cinerea) followed by holding for 4 days in a dark room at 20° C. and high humidity. The appearance of lesions on the leaves was compared with untreated seedlings to determine control effects.

[3] = test system: rice blast pathogen (Magnaporthe grisea); details: rice seedlings (Koshihikari), 400 ppm dropped onto water surface, inoculated two days later
[4] = test system: rice blast pathogen (Magnaporthe grisea); details: rice seedlings (Koshihikari), 400 ppm dropped onto water surface, inoculated 14 days later

Row | Compound | pest or weed control at 100 ppm [1] [%] | pest or weed control at 100 ppm [2] [%] | control effects [3] | control effects [4]
1 | CC(=O)C(C)(C)c1c(F)cccc1Oc1cnc2c(F)cccc2n1 [Compound 1-10, 3-[2-fluoro-6-(5-fluoro-quinoxalin-2-yloxy)-phenyl]-3-methyl-butan-2-one] | ≥ 75 | ≥ 75 | – | –
2 | CC(C)OC(=O)C(C)(C)c1ccccc1Oc1cnc2c(F)c(F)ccc2n1 [Compound 1-24] | – | – | B (Control value of 40% to less than 60%) | –
3 | COC(C)(C)c1ncccc1Oc1nc2ccc(F)c(F)c2nc1C [Compound 1-35, 5,6-difluoro-2-[2-(1-methoxy-1-methyl-ethyl)-pyridin-3-yloxy]-3-methyl-quinoxaline] | ≥ 75 | ≥ 75 | – | –
4 | Cc1nc2c(F)cccc2cc1Oc1cccnc1C(C)(C)O [a-7, 2-[(8-fluoro-2-methylquinolin-3-yloxy)pyridine-2-yl]propan-2-ol] | ≥ 75 | ≥ 75 | – | –
5 | CC(C)(O)c1ncccc1Oc1cnc2c(F)cccc2c1 [a-8] | – | – | – | B (Control value of 40% to less than 60%)
6 | CC(=O)c1ncccc1Oc1cc2cccc(F)c2nc1C [a-9, 1-[3-(2-methyl-8-fluoroquinolin-3-yloxy)-pyridin-2-yl]-ethanone] | ≥ 75 | – | – | –
7 | CC(C)(C#N)c1ncccc1Oc1cnc2c(F)cccc2c1 [a-11, 2-[3-(8-fluoro-quinolin-3-yloxy)-pyridin-2-yl]-2-methylpropionitrile] | ≥ 75 | ≥ 75 | – | –
8 | CCOC(=O)C(C)(C)c1ncccc1Oc1cnc2c(F)cccc2c1 [a-12, 2-[3-(8-fluoro-quinolin-3-yloxy)-pyridin-2-yl]-2-methylpropionic acid ethyl ester] | ≥ 75 | ≥ 75 | – | –
9 | CC(=O)C(C)(C)c1ncccc1Oc1cnc2c(F)cccc2c1 [a-15, 3-[3-(8-fluoro-quinolin-3-yloxy)-pyridin-2-yl]-3-methyl-butan-2-one] | ≥ 75 | ≥ 75 | – | –
10 | COC(C)(C)c1ncccc1Oc1cc2cccc(F)c2nc1C [a-16, 3-[2-(2-methoxy-2-propyl)pyridin-3-yloxy]-8-fluoro-2-methylquinoline] | ≥ 75 | ≥ 75 | – | –
11 | CC(C)(C(=O)O)c1ncccc1Oc1cnc2c(F)cccc2c1 [a-19, 2-[3-(8-fluoro-quinolin-3-yloxy)-pyridin-2-yl]-2-methylpropionic acid] | ≥ 75 | – | – | –
12 | CC(C)(C=O)c1ncccc1Oc1cnc2c(F)cccc2c1 [a-21, 2-[3-(8-fluoro-quinolin-3-yloxy)-pyridin-2-yl]-2-methyl-propioaldehyde] | ≥ 75 | ≥ 75 | – | –
13 | CCNC(=O)C(C)(C)c1ncccc1Oc1cnc2c(F)cccc2c1 [a-55, N-ethyl-2-[3-(8-fluoro-quinolin-3-yloxy)-pyridin-2-yl]-isobutylamide] | ≥ 75 | – | – | –
14 | CCOC(C)(C)c1ncccc1Oc1cc2cccc(F)c2nc1C [a-56, 3-[2-(2-ethoxy-2-propyl)pyridin-3-yloxy]-8-fluoro-2-methylquinoline] | ≥ 75 | ≥ 75 | – | –
